Results reported in patent US20090111786A1, “Compounds that Prevent Macrophage Apoptosis and Uses Thereof” (priority 2004, published 2009).

Legend:
[1] = system: AIM (Apoptosis Inhibitor expressed by Macrophages) mRNA; experiment: AIM mRNA expression by Northern blotting; settings: differentiated macrophages; T1317: at 12 to 24 h of stimulation; EC 10 μM
[2] = system: bone marrow-derived macrophages (BMDMs); experiment: Macrophage apoptosis on M-CSF withdrawal, sub-G1 DNA content by flow cytometry (PI); assay type: cell-based, mouse; settings: for increase in cells with sub-G1 DNA content (apoptosis-induced DNA fragmentation): BMDMs pre-incubated with agonist, then cultured without M-CSF
[3] = system: WT and LXR−/− macrophages; experiment: Cycloheximide-induced macrophage apoptosis, DNA fragmentation; assay type: cell-based, mouse; settings: for apoptotic process induced by CHX (DNA fragmentation): preincubation 24 h
macrophages = experiment: Cycloheximide-induced general caspase activity, fluorimetric; assay type: cell-based, mouse; settings: macrophages treated with CHX 10 μg/ml, 5 h
[4] = system: LPS-dependent gene expression in macrophages; experiment: Microarray analysis of LPS (TLR4)-induced apoptotic gene program; settings: 9cRA alone
Method: Microarray analysis: In one embodiment, large numbers of genes were assayed for relative expression levels using one or more of an Affymetrix U74A array and a Codelink Uniset 1 mouse array. Total RNA was isolated and purified using Trizol reagent (Invitrogen Life Technologies, Carlsbad, Calif.) and RNeasy columns (Qiagen, Valencia, Calif.). cRNA was generated from 10 μg total RNA using Superscript (Invitrogen) and the High Yield RNA transcription labeling kit (Enzo Biochem. Inc., Farmingdale, N.Y.). Duplicate samples of fragmented cRNA were hybridized to Affymetrix U74A arrays or Codelink Uniset 1 mouse arrays according to manufacture's instruction. Data was analyzed with Microarray Suite (Affymetrix, Santa Clara, Calif.) and Genespring software (Silicongenetics, Redwood City, Calif.).
An additional series of microarray experiments was performed to evaluate the influence of LXR activation on regulation of the apoptotic program induced by engagement of TLR4 (FIG. 4). Macrophages were incubated with GW3965 or vehicle for 16 h and then treated with LPS for 6 hours.
Macrophages were incubated with the LXR agonist GW3965 (1 μM) or vehicle for 16 h prior to treatment with LPS (100 ng/ml) for 6 h. Total RNA was subjected to microarray analysis using Codelink Mouse Uniset 1 microarrays.

O=S(=O)(c1ccccc1)N(CC(F)(F)F)c1ccc(C(O)(C(F)(F)F)C(F)(F)F)cc1 [T1317]
AIM mRNA levels [1]: highly induced
increase in cells with sub-G1 DNA content (apoptosis-induced DNA fragmentation) [2]: attenuated
apoptotic process induced by CHX (DNA fragmentation) ([3]; LXR-deficient macrophages): not
apoptotic process induced by CHX (DNA fragmentation) ([3]; […]): attenuated

C[C@H](CC[C@@H]1OC1(C)C)[C@H]1CC[C@H]2[C@@H]3CC=C4C[C@@H](O)CC[C@]4(C)[C@H]3CC[C@]12C [EC, 24(S),25-epoxycholesterol]
AIM mRNA levels [1]: induced
increase in cells with sub-G1 DNA content (apoptosis-induced DNA fragmentation) [2]: attenuated

C[C@@H]1C[C@@H]([C@H](O)CC2CC(=O)NC(=O)C2)C(=O)[C@@H](C)C1 [CHX, cycloheximide]
caspase activation (macrophages): increased
DNA fragmentation ([3]; macrophages treated with CHX 10 μg/ml, 6 h): increased

CC1=C(/C=C/C(C)=C\C=C\C(C)=C\C(=O)O)C(C)(C)CCC1 [9cRA, 9-cis retinoic acid]
effect on the action of the LXR-specific agonists on sub-G1 content ([2]; 9cRA combined with T1317, GW3965 or EC, M-CSF withdrawal): markedly enhanced
increase in cells with sub-G1 DNA content (apoptosis-induced DNA fragmentation) [2]: little effect
inhibitory activity on LPS-dependent gene expression [4]: very little inhibitory activity

O=C(O)Cc1cccc(OCCCN(Cc2cccc(C(F)(F)F)c2Cl)CC(c2ccccc2)c2ccccc2)c1 [GW3965]
increase in cells with sub-G1 DNA content (apoptosis-induced DNA fragmentation) [2]: attenuated
